Data: ChEMBL document CHEMBL1201862, “PubChem BioAssay data set” (2004)
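Results reflect a 48-hour exposure of cells in 96-well plates to compound at five concentrations. GI50: concentration for 50% inhibition of growth.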 Calls of active or inactive are those of the source. No stated cut-off is given here; in the data, active = GI50 up to about 1.1 µM and inactive = higher.

Experiments:
Test in all cases: NCI tumour cell line growth inhibition, 48 h
OVCAR-8 = system: OVCAR-8
OVCAR-4 = system: OVCAR-4
UACC-62 = system: UACC-62
HCT-15 = system: HCT-15
IGROV-1 = system: IGROV-1
HCC 2998 = system: HCC 2998
HOP-92 = system: HOP-92
SF-539 = system: SF-539
SF-268 = system: SF-268
NCI-H226 = system: NCI-H226
CAKI-1 = system: CAKI-1
SNB-19 = system: SNB-19
OVCAR-3 = system: OVCAR-3
UO-31 = system: UO-31
TK-10 = system: TK-10
SK-OV-3 = system: SK-OV-3
HL-60 = system: HL-60
A498 = system: A498
NCI-H23 = system: NCI-H23
SR = system: SR

Row | Structure (SMILES) | GI50 (OVCAR-8) | GI50 (OVCAR-4) | GI50 (UACC-62) | GI50 (HCT-15) [µM] | GI50 (IGROV-1) | GI50 (HCC 2998) | GI50 (HOP-92) | GI50 (SF-539) | GI50 (SF-268) | GI50 (NCI-H226) | GI50 (CAKI-1) | GI50 (SNB-19) | GI50 (OVCAR-3) | GI50 (UO-31) | GI50 (TK-10) | GI50 (SK-OV-3) | GI50 (HL-60) | GI50 (A498) | GI50 (NCI-H23) | GI50 (SR)
1 | N#Cc1c2c(c(Nc3ccc(F)cc3)n3c1nc1ccccc13)CCCC2 | > 67.3 µM (inactive) | > 87.3 µM (inactive) | > 100 µM (inactive) | > 100 | > 59.3 µM (inactive) | > 100 µM (inactive) | 26.9 µM (inactive) | > 55.5 µM (inactive) | > 100 µM (inactive) | > 80 µM (inactive) | > 52.2 µM (inactive) | 26.7 µM (inactive) | > 100 µM (inactive) | > 38.9 µM (inactive) | 18.9 µM (inactive) | 97.9 µM (inactive) | 9.93 µM (inactive) | > 100 µM (inactive) | > 100 µM (inactive) | 74.3 µM (inactive)
2 | O=C(CC(O)c1cccnc1)CC(O)c1cccnc1 (stereo not drawn) | 15.3 µM (inactive) | 20.7 µM (inactive) | 16.6 µM (inactive) | 14.1 | 14.8 µM (inactive) | 3.82 µM (inactive) | 17.4 µM (inactive) | 21.2 µM (inactive) | 25.5 µM (inactive) | 45.7 µM (inactive) | 17.7 µM (inactive) | 21.7 µM (inactive) | 14.7 µM (inactive) | 17.4 µM (inactive) | > 55.1 µM (inactive) | 17.5 µM (inactive) | 3.17 µM (inactive) | 15.9 µM (inactive) | 22.5 µM (inactive) | 2.78 µM (inactive)
3 | CCc1cccc(CC)c1NC1=CC(=O)C(=O)c2ccccc21 | 16.7 µM (inactive) | 13.7 µM (inactive) | 14 µM (inactive) | 10.3 | 15.1 µM (inactive) | 15 µM (inactive) | 15.1 µM (inactive) | 19.5 µM (inactive) | 22.5 µM (inactive) | 23 µM (inactive) | 18.9 µM (inactive) | 23 µM (inactive) | 2.84 µM (inactive) | 18.7 µM (inactive) | 23.9 µM (inactive) | 31.6 µM (inactive) | > 100 µM (inactive) | 22.3 µM (inactive) | 1.49 µM (inactive) | 29.9 µM (inactive)
4 | COC(=O)C1CCC(=O)N1C(c1ccc(OC)cc1)c1ccc2c(c1)OCO2 (stereo not drawn) | 48.9 µM (inactive) | > 100 µM (inactive) | 32.7 µM (inactive) | 32.3 | 52 µM (inactive) | 28.7 µM (inactive) | > 100 µM (inactive) | 32.9 µM (inactive) | 53.6 µM (inactive) | 67.3 µM (inactive) | 62.8 µM (inactive) | 37.2 µM (inactive) | 50.8 µM (inactive) | 27.5 µM (inactive) | > 100 µM (inactive) | 59.4 µM (inactive) | 21.2 µM (inactive) | 58.6 µM (inactive) | 82.8 µM (inactive) | 31 µM (inactive)
5 | COc1ccc(NC(C)=O)cc1N1C(=O)/C(=C\c2cc(OC)c(OC)c(OC)c2)S(=O)(=O)C1c1ccccc1 (stereo not drawn) | 59.4 µM (inactive) | 31.6 µM (inactive) | 65.6 µM (inactive) | 73.1 | 98.4 µM (inactive) | > 100 µM (inactive) | 51.3 µM (inactive) | > 100 µM (inactive) |  | 26.5 µM (inactive) | > 100 µM (inactive) | > 100 µM (inactive) | 60.3 µM (inactive) | 38.7 µM (inactive) | > 100 µM (inactive) | > 100 µM (inactive) | 19.3 µM (inactive) | > 100 µM (inactive) | 71.4 µM (inactive) | 33 µM (inactive)
6 | CC(C)/C(Cl)=N\OC(=O)Nc1ccc(C#N)cc1 | 16.7 µM (inactive) | 1.63 µM (inactive) | 17 µM (inactive) | 10.5 | 17.6 µM (inactive) | 16.4 µM (inactive) | 1.56 µM (inactive) | 15.9 µM (inactive) | 19.2 µM (inactive) | 13.1 µM (inactive) | 5.58 µM (inactive) | 18.3 µM (inactive) | 16.8 µM (inactive) | 9.02 µM (inactive) | 5.35 µM (inactive) | 17.3 µM (inactive) | 2.56 µM (inactive) | 14.5 µM (inactive) | 15.2 µM (inactive) | 2.17 µM (inactive)
7 | CCOC(=O)C(C(=O)OCC)c1ccc([N+](=O)[O-])o1 | 5.24 µM (inactive) | 17.3 µM (inactive) | 17.9 µM (inactive) | 17.3 | 20.3 µM (inactive) | 17.3 µM (inactive) | 6.62 µM (inactive) | 19.9 µM (inactive) | 25.4 µM (inactive) | 21.9 µM (inactive) | 6.18 µM (inactive) | > 100 µM (inactive) | 5.73 µM (inactive) | 15.6 µM (inactive) | 16.9 µM (inactive) | 62.2 µM (inactive) | 2.65 µM (inactive) | > 10 µM (inactive) | 17.6 µM (inactive) | 6.93 µM (inactive)
8 | CC(C)n1c(=O)n(-c2ccccc2)n(C(C)(C)C)c1=O | > 100 µM (inactive) | > 100 µM (inactive) | > 100 µM (inactive) | > 100 | > 100 µM (inactive) | > 100 µM (inactive) | > 100 µM (inactive) | > 100 µM (inactive) |  | > 100 µM (inactive) | > 100 µM (inactive) | > 100 µM (inactive) | > 100 µM (inactive) | > 100 µM (inactive) | > 100 µM (inactive) | > 100 µM (inactive) | 47.4 µM (inactive) | > 100 µM (inactive) | 83.2 µM (inactive) | 58.5 µM (inactive)
9 | Cc1ccc(N2C(=O)N(c3ccc(C)cc3)C3(SC=NN3C)C2=O)cc1 (stereo not drawn) | > 100 µM (inactive) | 95.5 µM (inactive) | 74 µM (inactive) |  | > 100 µM (inactive) | 98.9 µM (inactive) | > 100 µM (inactive) | > 100 µM (inactive) | > 100 µM (inactive) | 72.8 µM (inactive) | 83.2 µM (inactive) | > 100 µM (inactive) | 19.5 µM (inactive) | 42 µM (inactive) | 66.4 µM (inactive) | > 100 µM (inactive) | 22.6 µM (inactive) | 73.1 µM (inactive) | 35.2 µM (inactive) | 58.3 µM (inactive)
10 | c1ccc(C2=C(c3ccccc3)Sc3nnc(CCCCCCCCc4nnc5n4NC(c4ccccc4)=C(c4ccccc4)S5)n3N2)cc1 | 48.6 µM (inactive) | 39.2 µM (inactive) | 46.6 µM (inactive) | 37.5 |  | 85.5 µM (inactive) | 54.8 µM (inactive) | > 100 µM (inactive) | 83 µM (inactive) | > 100 µM (inactive) | > 100 µM (inactive) | 54.6 µM (inactive) | 39.8 µM (inactive) | 27.4 µM (inactive) | 44.2 µM (inactive) | > 100 µM (inactive) | 17.7 µM (inactive) | > 100 µM (inactive) | 49 µM (inactive) | 29.9 µM (inactive)
11 | CN1CCC2(CC1)SC[C@H]1C(=O)N(c3ccc(Cl)cc3)C(=O)N12 | > 100 µM (inactive) | > 100 µM (inactive) | > 100 µM (inactive) | 50.1 | > 100 µM (inactive) | > 100 µM (inactive) | > 100 µM (inactive) | > 100 µM (inactive) | > 100 µM (inactive) | > 100 µM (inactive) | > 100 µM (inactive) | > 100 µM (inactive) | > 100 µM (inactive) | > 100 µM (inactive) | > 100 µM (inactive) | > 100 µM (inactive) | > 100 µM (inactive) | 24.2 µM (inactive) | > 100 µM (inactive) | > 100 µM (inactive)
12 | CC/C=C\C/C=C\C/C=C\CCCCCCCC(=O)OCC | > 100 µM (inactive) | > 100 µM (inactive) | > 100 µM (inactive) |  | > 100 µM (inactive) | > 100 µM (inactive) | > 100 µM (inactive) | > 100 µM (inactive) | > 100 µM (inactive) | > 100 µM (inactive) | > 100 µM (inactive) |  | > 100 µM (inactive) | > 100 µM (inactive) | > 100 µM (inactive) | > 100 µM (inactive) | > 100 µM (inactive) | > 100 µM (inactive) | > 100 µM (inactive) | > 100 µM (inactive)
13 | CN(CCCN=C=S)CCCN1c2ccccc2CCc2ccccc21 | 1.78 µM (inactive) | 1.85 µM (inactive) | 1.79 µM (inactive) | 1.49 | 1.79 µM (inactive) | 1.31 µM (inactive) | 2.07 µM (inactive) | 1.76 µM (inactive) | 1.71 µM (inactive) | 2.04 µM (inactive) | 1.73 µM (inactive) | 1.72 µM (inactive) | 1.66 µM (inactive) | 1.62 µM (inactive) | 1.82 µM (inactive) | 1.63 µM (inactive) | 1.94 µM (inactive) | 1.66 µM (inactive) | 1.64 µM (inactive) | 0.456 µM (active)
14 | Clc1ccc(Cc2nc3cc(Cl)c(Cl)cc3n2CC2CCCN3CCCCC23)cc1Cl (stereo not drawn) | 6.32 µM (inactive) | 3.4 µM (inactive) | 2.28 µM (inactive) | 4.76 | 3.89 µM (inactive) | 1.65 µM (inactive) | 5.38 µM (inactive) | 1.98 µM (inactive) | 3.32 µM (inactive) | 7.16 µM (inactive) | 3.46 µM (inactive) | 2.9 µM (inactive) | 16 µM (inactive) | 0.335 µM (active) | 6.05 µM (inactive) | 1.11 µM (active) | 2.5 µM (inactive) | 8.17 µM (inactive) |  | 2.78 µM (inactive)
